US9850382B1, “Unsymmetrical cyanine dyes and their application” (priority 2016, dated 2017)

Experiments:
rRNA [1] = assay: Microplate fluorescence intensity with RNA dilutions; assay type: binding; conditions: dye 400 nM, RNA up to 1000 ng/mL in 1×TE, Ex/Em=620/660 nm, FIG. 2
Procedure: (§1) A series of RNA and DNA dilutions up to 1000 ng/mL in 1×TE buffer is added to the wells of a 96-well microplate. A series of mixture of RNA and DNA is prepared according to the following table, and is added to separate wells.
(§2) Compound 9 is added to each well at a final concentration of 400 nM. The fluorescence intensity is measured on a fluorescence plate reader with Ex/Em=620/660 nm.

rRNA and 1 kb DNA Ladder = assay: Detection of nucleic acids in electrophoretic gels (post-gel staining); assay type: binding; conditions: 1% agarose gel, ~1 μM dye in 1×TE, ~30 min staining, 633 nm laser, 675 nm filter
Procedure: Agarose gels (1% agarose) are prepared according to a standard protocol. Serial two-fold dilutions of 1 kb DNA Ladder from Invitrogen and rRNA from Roche are prepared, and the resulting DNA and RNA samples are loaded onto an agarose gel. The DNA and RNA samples are electrophoretically separated in 1×TBE buffer using a standard protocol. A stock solution of compound 9 is diluted into ˜1 μM final concentration in 1×TE buffer. The agarose gels are incubated in the staining solutions for ˜30 min to stain the gels. The stained nucleic acid bands are recorded using Fuji FLA-3000 gel scanner, using 633 nm laser illumination, and a 675 nm filter.

rRNA, tRNA and mRNA = assay: Selectivity test on different source of RNA; assay type: binding; conditions: dye 400 nM, RNA up to 1000 ng/mL in 1×TE, Ex/Em=620/660 nm, FIG. 4
Procedure: A series of rRNA, tRNA and mRNA dilutions up to 1000 ng/mL in 1×TE buffer is added to the wells of a 96-well microplate. Compound 9 is added to each well at a final concentration of 400 nM. The fluorescence intensity is measured on a fluorescence plate reader with Ex/Em=620/660 nm.

mixture of RNA and DNA = assay: Selectivity test on a mixture of RNA and DNA (total 1000 ng/mL); assay type: binding; conditions: dye 400 nM, RNA+DNA total 1000 ng/mL in 1×TE, Ex/Em=620/660 nm, FIG. 2
Procedure: as §1, §2

calf thymus DNA = assay: Microplate fluorescence intensity with DNA dilutions; assay type: binding; conditions: dye 400 nM, DNA up to 1000 ng/mL in 1×TE, Ex/Em=620/660 nm, FIG. 2
Procedure: as §1, §2

[2] = tested on: E. coli rRNA versus calf thymus DNA; assay: Selectivity test on RNA vs dsDNA (emission spectra in TE buffer); assay type: binding; conditions: 10 μg/mL calf thymus DNA or E. coli rRNA in 1×TE, 5 μL of 100 μM dye per mL, excitation 620 nm, FIG. 1
Procedure: A stock solution of compound 9 was prepared at 100 μM concentration in DMSO. Calf thymus DNA, and E. coli rRNA were prepared at 10 μg/mL concentration in 1×TE buffer, individually. To 1 mL of DNA solution and 1 mL of RNA solution was added with 5 μL of compound 9, individually. The emission spectrum associated with each of the solutions was scaned at excitation wavelength 620 nm.

rRNA [3] = assay: Detection of nucleic acids on microarrays, rRNA spots; assay type: binding; conditions: ~1 μM dye in 1×TE, 5 minutes, 633 nm laser excitation
Procedure: (§3) A microarray consisting of a dilution series of DNA marker and rRNA is printed on a slide using a microarray spotter. The slide is equilibrated in 1×SSC buffer to remove any excess printing buffer, and then soaked with compound 9 solution at ˜1 μM final concentration in 1×TE buffer for 5 minutes, followed by a 5 minute wash in 1×TE buffer to remove any excess compound. The slide is then imaged using a array scaner using 633 nm laser excitation.

DNA marker = assay: Detection of nucleic acids on microarrays, DNA spots; assay type: binding; conditions: ~1 μM dye in 1×TE, 5 minutes, 633 nm laser excitation
Procedure: as §3

[4] = tested on: mixture of RNA and DNA at 1:1 ratio; assay: Selectivity test on a 1:1 mixture of RNA and DNA; assay type: binding; conditions: dye 100 nM, RNA:DNA 1:1 up to 200 ng/mL each in 1×TE, Ex/Em=620/660 nm, FIG. 3
Procedure: In another experiment, a series of RNA and DNA dilutions up to 200 ng/mL in 1×TE buffer is added to the wells of a 96-well microplate. A series of mixture of RNA and DNA at 1:1 ratio is prepared according to the following table, and is added to separate wells.
Compound 9 is added to each well at a final concentration of 100 nM. The fluorescence intensity is measured on a fluorescence plate reader with Ex/Em=620/660 nm.

nucleic acids = conditions: cited from earlier work

Compound	fluorescence intensity response with RNA concentration (rRNA [1])	fluorescence signal of RNA bands versus corresponding DNA bands in gel (rRNA and 1 kb DNA Ladder)	fluorescent signal when associated with rRNA, tRNA and mRNA (rRNA, tRNA and mRNA)	fluorescence intensity of mixture of RNA and DNA compared with RNA alone (mixture of RNA and DNA)	fluorescence signal with DNA alone (calf thymus DNA)	selectivity for RNA versus DNA (fluorescence emission spectra) [2]	staining of rRNA spots on microarray (rRNA [3])	staining of DNA spots on microarray (DNA marker)	selectivity on RNA in a mixture of RNA and DNA [4]	detection sensitivity on nucleic acids (nucleic acids)
CCN(CC)Cc1ccc(C(=C\c2sc3ccc(S(=O)(=O)NCCCS(=O)(=O)[O-])cc3[n+]2C)/C=C2\C=CN(C)c3ccccc32)cc1 [Compound 9]	nice linear response	much brighter	comparable fluorescent signal	the same for the corresponding concentration of RNA	little to no signal	good selectivity	stained	undetectable	excellent selectivity	–
CCCN1C=C/C(=C\c2sc3ccccc3[n+]2C)c2ccccc21 [SYBR Safe]	–	–	–	–	–	–	–	–	–	low sensitive
CN1C(=Cc2cc[n+](C)c3ccccc23)Sc2ccccc21 [Thiazole Orange, reference compound]	–	–	–	–	–	–	–	–	–	low detection sensitivity
